# Assay results: patent US20230227405A1, “5-OXOPYRROLIDINE-3-CARBOXAMIDES AS NAV1.8 INHIBITORS” (MERCK SHARP & DOHME CORP., priority 2020, published 2023)
# Target: T1, human Nav1.8 (Homo sapiens, UniProt Q9Y5Y9)
# T1 construct: expressed in transfected cells
# Experiment: Qube® automated patch-clamp assay, Nav1.8
# Assay type: cell-based
# Conditions: human Nav1.8 stably expressed in HEK 293 cells; whole-cell voltage clamp, room temperature; read-out: IC50 values (nM) for Examples in the Nav1.8 Qube® Assay
# Procedure: Compounds were tested on human Nav1.8 and Nav1.5 channels stably expressed in human embryo kidney (HEK) 293 cells. Sodium current measurements on Qube® were conducted as follows: automated 384-well patch-clamp assays on the Qube® platform (Sophion Biosciences) were used to measure the inhibition of sodium flow through human Nav1.8 and Nav1.5 channels. Whole-cell voltage-clamp recordings were performed in QChips® (Sophion Biosciences) at room temperature. Nav1.8 current measurements on Qube® were obtained as follows: Nav1.8 currents were elicited with a 10 second 1 Hertz (Hz) pulse train from a holding potential of −90 millivolts (mV), delivered to the cells once per minute in the control condition (DMSO only) and after compound addition. The 1 hertz pulse train stimulation consisted of ten test pulses to 10 millivolt (mV) for 20 milliseconds (ms), each of which was followed by a 980 millisecond repolarization to −67 millivolts. At the end of the 10 second pulse train stimulation, a 5 second hyperpolarization step to −100 millivolt (mV) was used to recover Nav1.8 from fast inactivation. The peak currents elicited by the 1st and 10th test pulses were used to determine IC50 values for resting inhibition and inactivated state inhibition. Nav1.5 current measurements on Qube® were obtained as follows: Nav1.5 currents were elicited with a 20 second 3 Hertz pulse train in the control condition (DMSO only) and after compound addition. The pulse train consisted of sixty 20 millisecond test pulses to 0 millivolt from a holding potential of −80 millivolt (mV). The average peak currents elicited by the last 3 test pulses were used to determine IC50 values for Nav1.5 inhibition.
# The following buffers were used for the Qube® recordings: External buffer for Nav1.8 Qube® recording: 150 NaCl, 2 CaCl2, 5 KCl, 1 Mg Cl2, 10 HEPES, 12 Dextrose; External buffer for Qube® Nav1.5 recording: 120 N-Methyl-D-Glucamine, 40 NaCl, 1 KCl, 2.7 CaCl2, 5 HEPES, 0.5 MgCl2; and Internal buffer for Qube® recording: 120 CsF, 30 CsCl, 10 EGTA, 5 HEPES, 5 NaF, 2 MgCl2.
# For all Qube® experiments offline analysis was used to determine percent inhibition as a function of drug concentration. IC50 values were determined by fitting to the Hill equation.
# T1 sequence (Q9Y5Y9 whole entry): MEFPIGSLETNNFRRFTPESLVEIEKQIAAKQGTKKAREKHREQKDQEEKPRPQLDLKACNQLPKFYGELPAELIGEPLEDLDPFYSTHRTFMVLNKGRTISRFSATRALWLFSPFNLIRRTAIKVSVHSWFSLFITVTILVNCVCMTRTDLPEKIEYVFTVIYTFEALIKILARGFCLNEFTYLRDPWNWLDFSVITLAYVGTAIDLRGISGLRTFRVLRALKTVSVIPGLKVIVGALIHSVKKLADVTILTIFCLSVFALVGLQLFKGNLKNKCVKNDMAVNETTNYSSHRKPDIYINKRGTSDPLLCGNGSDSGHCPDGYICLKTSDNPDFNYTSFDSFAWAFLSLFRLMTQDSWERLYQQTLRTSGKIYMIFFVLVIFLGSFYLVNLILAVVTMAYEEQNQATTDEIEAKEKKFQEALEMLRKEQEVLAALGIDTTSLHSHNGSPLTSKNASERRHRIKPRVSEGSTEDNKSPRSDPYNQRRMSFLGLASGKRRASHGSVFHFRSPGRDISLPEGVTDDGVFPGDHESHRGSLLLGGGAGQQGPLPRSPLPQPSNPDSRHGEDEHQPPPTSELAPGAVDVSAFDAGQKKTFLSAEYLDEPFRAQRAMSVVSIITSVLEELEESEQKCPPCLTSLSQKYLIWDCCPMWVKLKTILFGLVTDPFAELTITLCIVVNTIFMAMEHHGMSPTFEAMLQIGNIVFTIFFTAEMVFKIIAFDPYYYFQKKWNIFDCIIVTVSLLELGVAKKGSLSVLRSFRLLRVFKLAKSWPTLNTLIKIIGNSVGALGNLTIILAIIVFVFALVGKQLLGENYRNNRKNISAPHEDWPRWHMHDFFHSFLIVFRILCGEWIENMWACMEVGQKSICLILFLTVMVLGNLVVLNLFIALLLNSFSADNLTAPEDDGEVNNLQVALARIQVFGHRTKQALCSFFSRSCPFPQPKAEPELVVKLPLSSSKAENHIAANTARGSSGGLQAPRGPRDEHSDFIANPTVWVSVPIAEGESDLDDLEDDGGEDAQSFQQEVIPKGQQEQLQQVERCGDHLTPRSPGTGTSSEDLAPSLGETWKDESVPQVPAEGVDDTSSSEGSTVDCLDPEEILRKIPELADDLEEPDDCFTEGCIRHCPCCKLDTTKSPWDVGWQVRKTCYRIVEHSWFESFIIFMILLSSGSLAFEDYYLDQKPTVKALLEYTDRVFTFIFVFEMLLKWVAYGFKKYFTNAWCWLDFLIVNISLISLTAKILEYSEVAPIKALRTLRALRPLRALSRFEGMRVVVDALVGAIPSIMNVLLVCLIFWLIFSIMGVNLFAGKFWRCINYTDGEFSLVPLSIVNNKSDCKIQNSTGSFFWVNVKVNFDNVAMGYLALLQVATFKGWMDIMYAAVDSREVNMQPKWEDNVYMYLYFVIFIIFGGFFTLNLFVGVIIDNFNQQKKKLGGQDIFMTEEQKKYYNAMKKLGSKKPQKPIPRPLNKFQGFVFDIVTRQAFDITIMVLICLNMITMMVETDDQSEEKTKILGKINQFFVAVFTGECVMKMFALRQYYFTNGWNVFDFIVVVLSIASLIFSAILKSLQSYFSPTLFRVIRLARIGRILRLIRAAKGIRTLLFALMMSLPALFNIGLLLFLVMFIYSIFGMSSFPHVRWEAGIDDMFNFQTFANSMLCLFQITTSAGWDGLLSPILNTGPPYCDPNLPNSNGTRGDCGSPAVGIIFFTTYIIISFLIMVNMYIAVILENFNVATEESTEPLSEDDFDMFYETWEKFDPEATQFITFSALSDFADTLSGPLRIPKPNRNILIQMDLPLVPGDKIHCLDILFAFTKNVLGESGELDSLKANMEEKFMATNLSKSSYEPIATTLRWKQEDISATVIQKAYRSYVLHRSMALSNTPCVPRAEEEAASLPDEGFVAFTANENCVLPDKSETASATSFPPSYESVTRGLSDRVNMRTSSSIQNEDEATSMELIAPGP
row,IC50,Structure (SMILES)
1,520 nM,"O=C1C[C@H](C(=O)NC(c2cccc(Cl)c2)c2cccc(OC(F)F)c2)CN1 (stereo partly drawn) [Example 6, (3S)-N-((3-chlorophenyl)(3-(difluoromethoxy)phenyl)methyl)-5-oxopyrrolidine-3-carboxamide]"
2,186 nM,"O=C1C[C@H](C(=O)NC(c2ccc(Cl)cc2)c2cc(F)cc(C(F)(F)F)c2)CN1 (stereo partly drawn) [Example 7, (3S)-N-((4-chlorophenyl)(3-fluoro-5-(trifluoromethyl)phenyl)methyl)-5-oxopyrrolidine-3-carboxamide]"
3,19 nM,"O=C1C[C@H](C(=O)NC(c2ccc(C(F)(F)F)cc2)c2cccc(C(F)(F)F)c2)CN1 (stereo partly drawn) [Example 8, (3S)-5-oxo-N-((3-(trifluoromethyl)phenyl)(4-(trifluoromethyl)phenyl)methyl)pyrrolidine-3-carboxamide]"
4,28 nM,"O=C1C[C@H](C(=O)NC(c2ccc(C(F)(F)F)cc2)c2ccc(C(F)(F)F)cc2)CN1 [Example 9, (S)-N-(bis(4-(trifluoromethyl)phenyl)methyl)-5-oxopyrrolidine-3-carboxamide]"
5,52 nM,"O=C1C[C@H](C(=O)NC(c2ccc(Cl)cc2)c2cccc(OC(F)(F)F)c2)CN1 (stereo partly drawn) [Example 10, (3S)-N-((4-chlorophenyl)(3-(trifluoromethoxy)phenyl)methyl)-5-oxopyrrolidine-3-carboxamide]"
6,5.3 nM,"O=C1C[C@H](C(=O)NC(c2ccc(F)c(Cl)c2)c2ccc(F)c(Cl)c2)CN1 [Example 18, (S)-N-(bis(3-chloro-4-fluorophenyl)methyl)-5-oxopyrrolidine-3-carboxamide]"
7,32 nM,"N#Cc1cc(C(NC(=O)[C@@H]2CNC(=O)C2)c2ccc(F)c(Cl)c2)ccc1F (stereo partly drawn) [Example 22, (3S)—N-((3-chloro-4-fluorophenyl)(3-cyano-4-fluorophenyl)methyl)-5-oxopyrrolidine-3-carboxamide]"
8,92 nM,"O=C1C[C@H](C(=O)NC(c2ccc(F)c(C(F)(F)F)c2)c2csc(C(F)(F)F)n2)CN1 (stereo partly drawn) [Example 23, (3S)-N-((4-fluoro-3-(trifluoromethyl)phenyl)(2-(trifluoromethyl)thiazol-4-yl)methyl)-5-oxopyrrolidine-3-carboxamide]"
9,5.5 nM,"O=C1C[C@H](C(=O)NC(c2ccc(F)c(C(F)(F)F)c2)c2ccc(F)c(Cl)c2F)CN1 (stereo partly drawn) [Example 24, (3S)-N-((3-chloro-2,4-difluorophenyl)(4-fluoro-3-(trifluoromethyl)phenyl)methyl)-5-oxopyrrolidine-3-carboxamide]"
10,53 nM,"O=C1C[C@H](C(=O)NC(COc2ccccc2)c2ccc(F)c(C(F)(F)F)c2)CN1 (stereo partly drawn) [Example 25, (3S)-N-(1-(4-fluoro-3-(trifluoromethyl)phenyl)-2-phenoxyethyl)-5-oxopyrrolidine-3-carboxamide]"
11,435 nM,"O=C1C[C@H](C(=O)NC(CCc2ccccc2)c2cccc(Cl)c2)CN1 (stereo partly drawn) [Example 26, (3S)-N-(1-(3-chlorophenyl)-3-phenylpropyl)-5-oxopyrrolidine-3-carboxamideNa]"
